Source: paper PMC7926793, “Synthesis and Biological Evaluation of 1-(Diarylmethyl)-1H-1,2,4-triazoles and 1-(Diarylmethyl)-1H-imidazoles as a Novel Class of Anti-Mitotic Agent for Activity in Breast Cancer” (Pharmaceuticals, 2021)

What was measured:
[1] = HPLC stability study in phosphate buffers; type: physicochemical
Protocol: Stability studies for compounds 21l and 24 were performed by analytical HPLC using a Symmetry® column (C18, […], 4.6 × 150 mm), a Waters 2487 Dual Wavelength Absorbance detector, a Waters 1525 binary HPLC pump, and a Waters 717 plus Autosampler (Waters Corporation, Milford, MA, USA). Samples were detected at λ 254 nm using acetonitrile (70%)/water (30%) as the mobile phase over 15 min and a flow rate of 1 mL/min. Stock solutions of the compounds are prepared using 10 mg of compounds 21l and 24 in 10 mL of mobile phase (1 mg/mL). Phosphate buffers at the desired pH values (4, 7.4, and 9) were prepared following the British Pharmacopoeia monograph 2020. Then, 30 μL of stock solution was diluted with 1 mL of appropriate buffer, shaken, and injected immediately. Samples were withdrawn and analysed at time intervals of t = 0 min, 5 min, 30 min, 60 min, and hourly for 24 h.

MCF-7 cells [2] = assay: Annexin V/PI apoptotic assay; type: cell-based, human; settings: 48 h
Protocol: (§1) Apoptotic cell death was detected by flow cytometry using Annexin V and propidium iodide (PI). MCF-7 and MDA-MB-231 cells were seeded in 6-well plates at a density of 1 × 10^5 cells/mL (3 mL) and treated with either vehicle (0.1% (v/v) EtOH), Phenstatin (7a), or 21l at different concentrations for the selected time. Then, cells were harvested and prepared for flow cytometric analysis. […] Then, cells were washed once in binding buffer and then re-suspended in PI-containing binding buffer (1:1000). […] Four populations are produced during the assay: Annexin V and PI negative (Q4, healthy cells), Annexin V positive and PI negative (Q3, early apoptosis), Annexin V and PI positive (Q2, late apoptosis), and Annexin V negative and PI positive (Q1, necrosis).

MDA-MB-231 cells = assay: Annexin V/PI apoptotic assay; type: cell-based, human; settings: 48 h
Protocol: as §1

MCF-7 cells [3] = assay: cell cycle analysis, PI staining, flow cytometry; type: cell-based, human; settings: 1 μM
Protocol: The cells were collected by trypsinisation and centrifuged at 800× g for 15 min. Cells were washed twice with ice-cold phosphate-buffered saline (PBS) and fixed in ice-cold 70% ethanol overnight at −20 °C.

[4] = tested on: purified bovine brain tubulin; assay: tubulin polymerisation assay; type: biochemical; settings: 10 μM
Protocol: The assembly of purified bovine tubulin was monitored using a kit, BK006, purchased from Cytoskeleton Inc. (Denver, CO, USA). […] Light is scattered proportionally to the concentration of polymerised microtubules in the assay. Therefore, tubulin assembly was monitored turbidimetrically at 340 nm in a Spectramax 340 PC spectrophotometer (Molecular Devices, Sunnyvale, CA, USA). The absorbance was measured at 30 s intervals for 60 min.

HL-60 leukaemia cells = assay: cell viability assay; type: cell-based; settings: Homo sapiens, read-out: Antiproliferative Activity HL-60 Cells IC50
Protocol: The human breast carcinoma cell line MCF-7 was purchased from the European Collection of Animal Cell Cultures (ECACC) and cultured in Eagles minimum essential medium with 10% foetal bovine serum, 2 mM L-glutamine, and 100 μg/mL penicillin/streptomycin. The medium was supplemented with 1% non-essential amino acids. The human breast carcinoma cell line MDA-MB-231 was purchased from the ECACC. MDA-MB-231 cells were maintained in Dulbecco’s modified Eagle’s medium (DMEM) supplemented with 10% (v/v) foetal bovine serum, 2 mM L-glutamine, and 100 μg/mL penicillin/streptomycin (complete medium). HL-60 cells were derived from a patient with acute myeloid leukaemia and were obtained from the ECACC (Salisbury, UK). Cells were cultured in RPMI-1640 Glutamax medium supplemented with 10% FCS media and 100 μg/mL penicillin/streptomycin. MCF-10A cells were obtained as a kind gift from Dr Susan McDonnell, School of Chemical and Bioprocess Engineering, University College Dublin and were cultured in Dulbecco’s Modified Eagle Medium: Nutrient Mixture F-12 (DMEM/F12; Gibco) supplemented with 5% horse serum (Invitrogen), 20 ng mL^−1 epidermal growth factor (Merck Millipore), 0.5 μg mL^−1 hydrocortisone (Sigma,-Aldrich, Arklow, Co. Wicklow, Ireland), 100 ng mL^−1 cholera toxin (Sigma, Aldrich, Arklow, Co. Wicklow, Ireland), 10 μg mL^−1 insulin (Sigma, Aldrich, Arklow, Co. Wicklow, Ireland), and penicillin/streptomycin 5000 U mL^−1 (1%)(Gibco, Biosciences, 3 Charlemont Terrace, Crofton Road, Dun Laoghaire, Co Dublin, A96 K7H7, Ireland). […]
Cells were seeded at a density of 2.5 × 10^4 cells/well (MCF-7, MDA-MB-231, MCF-10A cells) and 1 × 10^4 cells/well (HL-60) in 96-well plates (200 μL per well). […] Cell proliferation for MCF-7, MDA-MB-231, and MCF-10A cells was analysed using the alamarBlue assay (Invitrogen Corp.) according to the manufacturer’s instructions. […] Fluorescence was read using a 96-well fluorimeter with excitation at 530 nm and emission at 590 nm. Results were expressed as percentage viability relative to vehicle control (100%).

Compound: COc1ccc(C(c2cc(OC)c(OC)c(OC)c2)n2ccnc2)cc1O (stereo not drawn) [21l, 5-((1H-Imidazol-1-yl)(3,4,5-Trimethoxyphenyl)Methyl)-2-Methoxyphenol]
- compound remaining (HPLC) ([1]; pH 4, 24 h): 90%
- viability at 0.1 µM (MCF-7 cells [2]; Homo sapiens, MCF7, MCF-7, 0.1 μM, Figure 9A, read-out: Viable): 85.4%
- viability at 0.5 µM (MCF-7 cells [2]; Homo sapiens, MCF7, MCF-7, 0.5 μM, Figure 9A, read-out: Viable): 81.9%
- viability at 1 µM (MCF-7 cells [2]; Homo sapiens, MCF7, MCF-7, 1 μM, Figure 9A): 79.4%
- Annexin V-stained positive cells (total apoptotic cells) (MCF-7 cells [2]; MCF-7, 0.1 μM): 14.1%
- Annexin V-stained positive cells (total apoptotic cells) (MCF-7 cells [2]; MCF-7, 0.5 μM): 17.5%
- Annexin V-stained positive cells (total apoptotic cells) (MCF-7 cells [2]; MCF-7, 1 μM): 19.3%
- viability at 0.1 µM (MDA-MB-231 cells; Homo sapiens, MDA-MB-231, 0.1 μM, Figure 9B, read-out: Viable): 95.3%
- viability at 0.5 µM (MDA-MB-231 cells; Homo sapiens, MDA-MB-231, 0.5 μM, Figure 9B, read-out: Viable): 93.1%
- viability at 1 µM (MDA-MB-231 cells; Homo sapiens, MDA-MB-231, 1 μM, Figure 9B): 91.5%
- total apoptotic cells (MDA-MB-231 cells; MDA-MB-231, 0.1 μM): 3.6%
- total apoptotic cells (MDA-MB-231 cells; MDA-MB-231, 0.5 μM): 5.9%
- total apoptotic cells (MDA-MB-231 cells; MDA-MB-231, 1.0 μM): 6.9%
- cells in the G2/M phase (MCF-7 cells [3]; 24 h): 47%
- cells undergoing apoptosis (sub-G1) (MCF-7 cells [3]; 24 h): 15%
- cells in the G2/M phase (MCF-7 cells [3]; 48 h): 43%
- cells undergoing apoptosis (sub-G1) (MCF-7 cells [3]; 48 h): 31%
- cells in the G2/M phase (MCF-7 cells [3]; 72 h): 40%
- cells undergoing apoptosis (sub-G1) (MCF-7 cells [3]; 72 h): 37%
- effect on tubulin polymerisation and assembly [4]: significant inhibition of tubulin polymerisation
- fold reduction of the polymer mass compared to the vehicle [4]: 1.34 fold
- Vmax value of tubulin polymerisation ([4]; 60 min): 2.84 ± 0.10 mOD/min
- IC50 (HL-60 leukaemia cells): 156 ± 52 nM

Compound: COc1ccc(C(c2cc(OC)c(OC)c(OC)c2)n2nccn2)cc1O (stereo not drawn) [compound 24]
- compound remaining (HPLC) ([1]; pH 4, 24 h): 65%
- compound remaining (HPLC) ([1]; pH 7.4, 24 h): 50%
- compound remaining (HPLC) ([1]; pH 9, 24 h): 60%
- cells in the G2/M phase (MCF-7 cells [3]; 24 h): 52%
- cells in the G2/M phase (MCF-7 cells [3]; 48 h): 56%
- cells in the G2/M phase (MCF-7 cells [3]; 72 h): 59%
- IC50 (HL-60 leukaemia cells): 173 ± 55 nM
